Experimental data taken from patent EP0454461A1, “Selective amplification system using Q beta replicase, a hybridization assay and a method of detecting and assessing concentration of target nucleic acid in liquid samples” (GENE-TRAK SYSTEMS CORPORATION, priority 1990, dated 1991).

Experiments:
[1] = system: Qβ replicase; experiment: Inhibition by dyes of MDV-1 replication in linear-phase Qβ replicase reactions; type: biochemical, bacteriophage Qβ; conditions: about 3µg/ml dye; MDV-1 template
Description: A number of dyes, including ethidium bromide, ethidium bromide homodimer, propidium iodide, proflavine, quinacrine, Hoescht 33258 (bis-benzamidine), dimidium bromide and acridine orange, were tested for their ability to inhibit the replication of MDV-1 in linear-phase reactions, i.e., where the template RNA is present in excess over the enzyme and the amount of replicated RNA thus increases linearly with time. […] One of the strongest inhibitors, propidium iodide, was selected for further study. A concentration of dye producing a 70% inhibition of replication, about 3µg/ml, is sufficiently low to allow detection of the fluorescence increase produced when the dye binds to the RNA products of the reaction.

[2] = system: Qβ replicase; experiment: Effect of propidium iodide on replication of wild type MDV-1 RNA in a Qβ replicase preparation (32P-CTP incorporation, geometric phase); type: biochemical, bacteriophage Qβ; conditions: wild type MDV-1 template
Description: Propidium iodide was tested for its effect on the replication of wild type RNA in a preparation of Qβ replicase. Propidium iodide in an amount of either 0, 1, or 3µg/ml was added to a reaction buffer containing: 90mM Tris HC1 (pH7.5), 14mM MgC1₂, 0.4mM each ATP, GTP, UTP, and CTP, and 10µCi α-³²P-CTP. The Qβ replicase reaction was initiated in each sample by addition of 1.2µg of Qβ replicase prepared according to the method of Eoyang and August, (1972), ibid. Aliquots of the reaction mixture were withdrawn every 5 minutes and spotted on DE81 filters (Schleicher & Schuell Inc., Keene, NH). The spotted filters were washed repeatedly with 0.5M NaPO₄, (pH7.0) to remove unincorporated nucleotide. The filters were counted for Cerenkov radiation by standard procedures in a scintillation counter. Addition of propidium iodide delayed the point in time at which levels of incorporation resulting from the replication of wild type MDV-1 template became detectable. One microgram per milliter delayed the appearance of replicated product between about 2-5 minutes, which corresponds to about 20-50% inhibition of the rate of replication in the geometric phase, and 3µg/ml delayed the appearance of product for about 20 minutes, which corresponds to approximately a 3-fold reduction in the rate of replication.

With `CC[N+](C)(CC)CCC[n+]1c(-c2ccccc2)c2cc(N)ccc2c2ccc(N)cc21` [propidium iodide] the inhibition of replication [1] was 70%, the “delay of the appearance of replicated product” value ([2]; 1 µg/ml propidium iodide) was 2 to 5 min and the “inhibition of the rate of replication in the geometric phase” value ([2]; 1 µg/ml propidium iodide) was 20-50%. For the same compound, the “delay of the appearance of product” value ([2]; 3µg/ml propidium iodide) was “about 20 minutes” and the “reduction in the rate of replication” value ([2]; 3µg/ml propidium iodide) was ~3 fold.
